Target: BTK (Homo sapiens, UniProt Q06187)
Experiment: biochemical
Conditions: read-out: BTK inhibition (%)

Sequence of BTK (Q06187 402-655 limits assumed): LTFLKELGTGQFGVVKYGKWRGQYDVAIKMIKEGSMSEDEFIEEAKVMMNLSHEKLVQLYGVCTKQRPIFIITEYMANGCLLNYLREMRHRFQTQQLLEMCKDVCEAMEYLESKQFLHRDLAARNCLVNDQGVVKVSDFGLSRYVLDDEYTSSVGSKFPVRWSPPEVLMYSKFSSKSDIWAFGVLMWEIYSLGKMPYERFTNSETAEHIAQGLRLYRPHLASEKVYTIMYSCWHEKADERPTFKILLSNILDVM

Q: For O=P(O)(O)Oc1cccc2ccccc12 [PCM-0216167], which inhibition at 10 µM is on record?
A: Its inhibition at 10 µM is -4.6%.

Same assay, conditions: read-out: BTK inhibition (%), 0.75 uM BTK, […] probe 3l, 15 min preincubation

Q: Which inhibition at 10 µM does the source give for CC(C)(O)[C@@H]1CC[C@](C)([C@H]2[C@@H](O)C[C@@]3(C)[C@@H]4C[C@H](O)[C@H]5C(C)(C)[C@@H](O)CC[C@@]56C[C@@]46CC[C@]23C)O1 [PCM-0215101] here?
A: Its inhibition at 10 µM is -6.9%.

Q: For C[C@@H]1COCCN1c1cc(C2([S@](C)(=N)=O)CC2)nc(-c2ccnc3[nH]ccc23)n1 [PCM-0215530], which inhibition at 10 µM is on record?
A: Its inhibition at 10 µM is -4.1%.

Q: How did the inhibition at 10 µM turn out when C/C(=C\C(=O)Nc1ccccc1C(=O)O)c1ccc2ccccc2c1 [PCM-0095068] was run?
A: The inhibition at 10 µM was -11%.

Q: CO[C@H]1/C=C/O[C@@]2(C)Oc3c(C)c(O)c4c(O)c(cc(O)c4c3C2=O)NC(=O)/C(C)=C\C=C\[C@H](C)[C@H](O)[C@@H](C)[C@@H](O)[C@@H](C)[C@H](OC(C)=O)[C@@H]1C [PCM-0216568] was tested. Which inhibition at 10 µM did it give?
A: Its inhibition at 10 µM is 22.4%.

Q: How did the inhibition at 10 µM turn out when CCNC(=O)C[C@@H]1N=C(c2ccc(Cl)cc2)c2cc(OC)ccc2-n2c(C)nnc21 [PCM-0215230] was run?
A: Its inhibition at 10 µM is -20.8%.

Q: With N#CCNC(=O)c1ccc(-c2ccnc(Nc3ccc(N4CCOCC4)cc3)n2)cc1 [PCM-0095254] as the compound, how does the inhibition at 10 µM read?
A: The inhibition at 10 µM was 16.6%.

Q: How did the inhibition at 10 µM turn out when OC[C@H]1O[C@H](OC[C@H]2OC(O)[C@H](O)[C@@H](O)[C@@H]2O)[C@H](O)[C@@H](O)[C@H]1O (some centres unmarked) [PCM-0215071] was run?
A: Its inhibition at 10 µM is -21.8%.

Q: With C/C(=N\NC(=S)N1CCC1)c1ccccn1 [PCM-0095797] as the compound, how does the inhibition at 10 µM read?
A: Its inhibition at 10 µM is -13.9%.

Q: With CN1CCC(=C2c3ccccc3CCn3c(C=O)cnc32)CC1 [PCM-0214821] as the compound, how does the inhibition at 10 µM read?
A: Its inhibition at 10 µM is 2.1%.

Q: For OC[C@H]1O[C@@H](Oc2cc3c(O)cc(O)cc3[o+]c2-c2ccc(O)c(O)c2)[C@H](O)[C@@H](O)[C@@H]1O [PCM-0216543], which inhibition at 10 µM is on record?
A: Its inhibition at 10 µM is 23.9%.

Q: COC(=O)c1cc(OC)c(O)c(OC)c1 [PCM-0215058] was tested. Which inhibition at 10 µM did it give?
A: The inhibition at 10 µM was -17.1%.

Q: CCCCCCCCCCCCCCCCO [PCM-0214755] was tested. Which inhibition at 10 µM did it give?
A: The inhibition at 10 µM was -3.9%.

Q: With CN1CCN(CCCN2c3ccccc3Sc3ccc(C(F)(F)F)cc32)CC1 [PCM-0064852] as the compound, how does the inhibition at 10 µM read?
A: The inhibition at 10 µM was -4.7%.

Q: Which inhibition at 10 µM does the source give for CN1CCC(NC(=O)c2cc(-c3c(O)cc(O)cc3Oc3ccc([N+](=O)[O-])cc3)on2)CC1 [PCM-0215304] here?
A: The inhibition at 10 µM was -10.8%.

Q: How did the inhibition at 10 µM turn out when CCC1(c2ccccc2)C(=O)NCNC1=O [PCM-0065590] was run?
A: Its inhibition at 10 µM is -17.1%.

Q: With CN1CCCN(C(=O)c2cccc(-c3ccc(/C=C4/C(=O)Nc5ccc(Cl)cc54)o3)c2)CC1 [PCM-0215321] as the compound, how does the inhibition at 10 µM read?
A: Its inhibition at 10 µM is 26.9%.

Q: For COC(=O)c1ccc2c(C(=Nc3ccc(N(C)C(=O)CN4CCN(C)CC4)cc3)c3ccccc3)c(O)[nH]c2c1 [PCM-0094897], which inhibition at 10 µM is on record?
A: Its inhibition at 10 µM is 22.1%.

Q: CC(=O)OCC1=C(C(=O)O)N2C(=O)[C@@H](NC(=O)CSC(=NC(C)C)NC(C)C)[C@H]2SC1 [PCM-0216063] was tested. Which inhibition at 10 µM did it give?
A: The inhibition at 10 µM was 4.7%.

Q: How did the inhibition at 10 µM turn out when COc1cc2ncnc(Sc3nnc(C)s3)c2cc1OC [PCM-0215288] was run?
A: Its inhibition at 10 µM is 5.5%.

Q: Which inhibition at 10 µM does the source give for CC(C)=CCC[C@](C)(O[C@@H]1O[C@H](CO)[C@@H](O)[C@H](O)[C@H]1O)[C@H]1CC[C@]2(C)[C@@H]1[C@H](O)C[C@@H]1[C@@]3(C)CC[C@H](O)C(C)(C)[C@@H]3[C@@H](O)C[C@]12C [PCM-0216532] here?
A: Its inhibition at 10 µM is -11.6%.

Q: How did the inhibition at 10 µM turn out when CC(C)(Oc1ccc(Cl)cc1)C(=O)OCCOC(=O)c1cccnc1 [PCM-0214787] was run?
A: The inhibition at 10 µM was -6.2%.

Q: Which inhibition at 10 µM does the source give for C[C@]12C=CC(=O)N[C@@H]1CC[C@@H]1[C@@H]2CC[C@]2(C)[C@@H](C(=O)Nc3cc(C(F)(F)F)ccc3C(F)(F)F)CC[C@@H]12 [PCM-0214606] here?
A: The inhibition at 10 µM was -4.7%.

Q: Which inhibition at 10 µM does the source give for CCc1ccc(-c2nc(CSCC(=O)NCCc3ccccc3)c(C)o2)cc1 [PCM-0215904] here?
A: Its inhibition at 10 µM is -4.6%.

Q: CC(C)c1cnn2c(NCc3ccccc3)cc(NCCCCCCN)nc12 [PCM-0095134] was tested. Which inhibition at 10 µM did it give?
A: The inhibition at 10 µM was -25.5%.

Q: O=C(Nc1ccccc1Br)N[C@@H]1CCN(c2ccc(C(F)(F)F)cn2)C1 [PCM-0095337] was tested. Which inhibition at 10 µM did it give?
A: Its inhibition at 10 µM is -17.1%.

Q: How did the inhibition at 10 µM turn out when Cc1c(C(=O)NN2CCCCC2)nn(-c2ccc(Cl)cc2Cl)c1-c1ccc(I)cc1 [PCM-0095445] was run?
A: The inhibition at 10 µM was 34.2%.

Q: O=C1c2cccc(O)c2C(=O)c2c(O)cc(CO)cc21 [PCM-0095288] was tested. Which inhibition at 10 µM did it give?
A: Its inhibition at 10 µM is 16.3%.

Q: For C[C@]12CC[C@@H]3c4ccc(O)cc4CC[C@H]3[C@@H]1CC[C@@H]2O [PCM-0214649], which inhibition at 10 µM is on record?
A: Its inhibition at 10 µM is 4.1%.

Q: CC(C)N(CCCNC(=O)Nc1ccc(C(C)(C)C)cc1)C[C@H]1O[C@@H](n2ccc3c(N)ncnc32)[C@H](O)[C@@H]1O [PCM-0215195] was tested. Which inhibition at 10 µM did it give?
A: The inhibition at 10 µM was -18.5%.

Q: With COc1ccc(S(=O)(=O)NCc2ccc(C(=O)NCCc3ccc(Cl)cn3)cc2)cc1 [PCM-0215817] as the compound, how does the inhibition at 10 µM read?
A: Its inhibition at 10 µM is -22.4%.

Q: Nc1ccc(Cl)cc1C(=O)C(F)(F)F [PCM-0216158] was tested. Which inhibition at 10 µM did it give?
A: The inhibition at 10 µM was 23.2%.

Q: For C[N+](C)(C)NCCC(=O)[O-] [PCM-0215179], which inhibition at 10 µM is on record?
A: The inhibition at 10 µM was -8.5%.

Q: With C[C@@H](O)[C@H]1C(=O)N2C(C(=O)[O-])=C(SC3Cn4cnc[n+]4C3)[C@H](C)[C@H]12 (some centres unmarked) [PCM-0215353] as the compound, how does the inhibition at 10 µM read?
A: The inhibition at 10 µM was -18.7%.

Q: For CCC1(c2ccc(N)cc2)CCC(=O)NC1=O (centres unmarked) [PCM-0064565], which inhibition at 10 µM is on record?
A: Its inhibition at 10 µM is -3.4%.

Q: How did the inhibition at 10 µM turn out when CC(=O)O[C@]1(C)CC[C@@]23C[C@@H]1C(C)(C)[C@@H]2CC[C@H]3C [PCM-0215054] was run?
A: The inhibition at 10 µM was 10.9%.

Q: Which inhibition at 10 µM does the source give for CC(C)=C[C@H]1C[C@](C)(O)[C@@H]2[C@H]3CC[C@@H]4[C@@]5(C)CC[C@H](O[C@@H]6OC[C@H](O)[C@H](O[C@@H]7O[C@H](CO)[C@@H](O)[C@H](O)[C@H]7O[C@@H]7OC[C@@H](O)[C@H](O)[C@H]7O)[C@H]6O[C@@H]6O[C@@H](C)[C@H](O)[C@@H](O)[C@H]6O)C(C)(C)[C@@H]5CC[C@@]4(C)[C@@]34CO[C@@]2(C4)O1 [PCM-0216470] here?
A: The inhibition at 10 µM was 10%.

Q: For O=P(O)(O)OC1C(OP(=O)(O)O)C(OP(=O)(O)O)C(OP(=O)(O)O)C(OP(=O)(O)O)C1OP(=O)(O)O (centres unmarked) [PCM-0215940], which inhibition at 10 µM is on record?
A: The inhibition at 10 µM was 21.3%.

Q: Which inhibition at 10 µM does the source give for CC(C)=CCC/C(C)=C\CO [PCM-0216032] here?
A: The inhibition at 10 µM was 3.1%.

Q: With CC(C)(O)[C@@H]1CC[C@](C)([C@H]2[C@@H](O)C[C@@]3(C)[C@@H]4C[C@H](O[C@@H]5O[C@H](CO)[C@@H](O)[C@H](O)[C@H]5O)[C@H]5C(C)(C)[C@@H](O[C@@H]6OC[C@@H](O)[C@H](O)[C@H]6O)CC[C@@]56C[C@@]46CC[C@]23C)O1 [PCM-0215009] as the compound, how does the inhibition at 10 µM read?
A: Its inhibition at 10 µM is 12.5%.

Q: Which inhibition at 10 µM does the source give for O=CC1OC(=O)c2cc(O)c(O)c(O)c2-c2c(cc(O)c(O)c2O)C(=O)OC1C1OC(=O)c2cc(O)c(O)c(O)c2-c2c(O)c(O)c3oc(=O)c4c(c(O)c(O)c5oc(=O)c2c3c54)-c2c(cc(O)c(O)c2O)C(=O)OCC1O (centres unmarked) [PCM-0216414] here?
A: The inhibition at 10 µM was 27%.

Q: For O=C(O)[C@@H]1CCCN1 [PCM-0216221], which inhibition at 10 µM is on record?
A: The inhibition at 10 µM was -24.7%.

Q: How did the inhibition at 10 µM turn out when COc1cccc2c1C(=O)c1c(O)c3c(c(O)c1C2=O)C[C@@](O)(C(=O)CO)C[C@@H]3O[C@H]1C[C@H](N)[C@H](O)[C@H](C)O1 [PCM-0086032] was run?
A: The inhibition at 10 µM was 42.8%.

Q: Which inhibition at 10 µM does the source give for CCC(CC)(NC(=O)C(C)C)C(=O)N[C@@H](CCCN=C(N)N)C(=O)NC1(C(=O)NC(c2ccc(F)cc2)c2ccc(F)cc2)CCCC1 [PCM-0215267] here?
A: The inhibition at 10 µM was -14.7%.

Q: With C[C@H]1O[C@@H](O[C@H]2CC[C@@]3(C)[C@@H](CC[C@]4(C)[C@@H]3C=CC3=C5CC(C)(C)CC[C@]5(CO)[C@H](O)C[C@]34C)[C@]2(C)CO)[C@H](O)[C@@H](O[C@@H]2O[C@H](CO)[C@@H](O)[C@H](O)[C@H]2O)[C@H]1O [PCM-0216536] as the compound, how does the inhibition at 10 µM read?
A: The inhibition at 10 µM was 5.4%.

Q: Which inhibition at 10 µM does the source give for C=C[C@@H]1CNC(=S)O1 [PCM-0216374] here?
A: The inhibition at 10 µM was -6.2%.

Q: With Cc1cccc(C)c1OCC(=O)N[C@@H](Cc1ccccc1)[C@@H](O)C[C@H](Cc1ccccc1)NC(=O)[C@H](C(C)C)N1CCCNC1=O [PCM-0214618] as the compound, how does the inhibition at 10 µM read?
A: Its inhibition at 10 µM is -21.8%.

From publication PMC8041284, “Tunable Methacrylamides for Covalent Ligand Directed Release Chemistry” (Journal of the American Chemical Society, 2021)
